What was measured:
[1] = target: T1, L protein (Escherichia coli, UniProt P0A9P0); assay: NADH formation at […] nm; type: biochemical
T1 construct: gene lpdA
T1 sequence (P0A9P0 2-474): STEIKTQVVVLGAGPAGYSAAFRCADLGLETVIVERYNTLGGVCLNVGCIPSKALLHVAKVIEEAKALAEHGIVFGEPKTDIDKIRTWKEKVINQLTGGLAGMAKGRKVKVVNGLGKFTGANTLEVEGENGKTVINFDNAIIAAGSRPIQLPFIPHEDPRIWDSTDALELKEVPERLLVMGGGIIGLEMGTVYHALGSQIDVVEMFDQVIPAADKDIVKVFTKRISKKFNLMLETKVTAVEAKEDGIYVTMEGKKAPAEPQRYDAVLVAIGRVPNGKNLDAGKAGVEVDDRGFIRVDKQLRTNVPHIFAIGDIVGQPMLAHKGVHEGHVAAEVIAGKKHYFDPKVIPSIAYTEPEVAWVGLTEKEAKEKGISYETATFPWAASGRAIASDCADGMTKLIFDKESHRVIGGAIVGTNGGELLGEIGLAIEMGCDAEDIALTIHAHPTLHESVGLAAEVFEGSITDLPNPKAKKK

[2] = target: T2, MsLSD (Mycolicibacterium smegmatis, UniProt A0QY48); assay: residual serine dehydratase activity; type: biochemical; settings: 75% loss printed at 20 mM, reactive inactivator
T2 construct: gene MSMEG_3532; described as PLP-dependent
T2 sequence (A0QY48 1-316): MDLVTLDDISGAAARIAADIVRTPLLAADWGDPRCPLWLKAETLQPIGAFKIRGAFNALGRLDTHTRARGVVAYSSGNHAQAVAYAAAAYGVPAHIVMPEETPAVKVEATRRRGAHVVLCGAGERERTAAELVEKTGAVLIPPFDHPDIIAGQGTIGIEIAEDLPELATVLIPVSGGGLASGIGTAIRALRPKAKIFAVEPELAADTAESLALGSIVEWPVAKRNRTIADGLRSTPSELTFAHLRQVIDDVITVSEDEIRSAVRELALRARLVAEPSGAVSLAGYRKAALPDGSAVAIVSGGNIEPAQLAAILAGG

[3] = target: T3, LpLSD (Legionella pneumophila, UniProt Q5ZXE1); settings: freshly made enzyme
T3 construct: gene sda-2
T3 sequence (Q5ZXE1 1-458): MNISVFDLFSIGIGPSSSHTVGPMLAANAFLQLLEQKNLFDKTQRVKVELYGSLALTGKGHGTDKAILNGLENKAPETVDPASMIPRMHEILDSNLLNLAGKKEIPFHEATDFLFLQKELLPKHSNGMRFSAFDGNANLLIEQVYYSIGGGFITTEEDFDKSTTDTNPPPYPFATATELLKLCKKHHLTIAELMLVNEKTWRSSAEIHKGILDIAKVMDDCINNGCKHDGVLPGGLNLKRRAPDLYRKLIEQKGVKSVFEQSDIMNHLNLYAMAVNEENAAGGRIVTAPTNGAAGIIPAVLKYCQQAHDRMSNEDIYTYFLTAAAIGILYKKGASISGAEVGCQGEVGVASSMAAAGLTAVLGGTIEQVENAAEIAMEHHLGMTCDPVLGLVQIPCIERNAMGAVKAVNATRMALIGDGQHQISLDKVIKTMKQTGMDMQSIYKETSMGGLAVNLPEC

NC(=O)c1ccc[n+]([C@@H]2O[C@H](COP(=O)(O)OP(=O)(O)OC[C@H]3O[C@@H](n4cnc5c(N)ncnc54)[C@H](O)[C@@H]3O)[C@@H](O)[C@H]2O)c1 [NAD^+]
NADH formation at 340 nm [1]: Hred was then re-oxidized by L-protein in the presence of NAD^+

C=O [formaldehyde]
activity loss at 10 mM formaldehyde [2]: ~ 50%

N[C@@H](CO)C(=O)O [serine]
pyruvate formation by HPLC [3]: The fresh-made LpLSD enzyme showed similar activities
